Values quoted from earlier work, collected in patent publication US7432394B2, “Resolution of α-(phenoxy) phenylacetic acid derivatives with naphthyl-alkylamines” (Metabolex, Inc., priority 2005, dated 2008).

Target: cytochrome P450 2C9 (Homo sapiens, UniProt P11712)
Sequence (P11712 whole entry): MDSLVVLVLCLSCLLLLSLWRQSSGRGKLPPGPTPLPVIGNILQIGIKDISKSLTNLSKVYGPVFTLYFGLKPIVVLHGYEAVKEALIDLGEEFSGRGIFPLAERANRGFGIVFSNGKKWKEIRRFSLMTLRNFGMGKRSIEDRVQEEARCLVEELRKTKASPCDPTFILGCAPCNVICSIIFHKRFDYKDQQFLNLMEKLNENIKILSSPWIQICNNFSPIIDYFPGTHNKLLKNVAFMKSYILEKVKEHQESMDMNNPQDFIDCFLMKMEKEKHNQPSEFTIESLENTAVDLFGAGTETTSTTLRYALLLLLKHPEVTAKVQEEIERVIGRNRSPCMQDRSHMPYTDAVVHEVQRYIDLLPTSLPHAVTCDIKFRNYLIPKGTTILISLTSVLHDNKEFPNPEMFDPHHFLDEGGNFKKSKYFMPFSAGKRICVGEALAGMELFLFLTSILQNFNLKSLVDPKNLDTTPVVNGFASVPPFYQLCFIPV

SMILES	ability to inhibit cytochrome P450 2C9 compared to the (+)-enantiomer (fold less active than the (+)-enantiomer of halofenic acid)	inhibition of cytochrome P450 2C9 (racemic acid, result in words)
O=C(O)C(Oc1cccc(C(F)(F)F)c1)c1ccc(Cl)cc1 (single isomer, unassigned; (-)) [(−)-enantiomer of halofenic acid, (−)-4-chloro-α-(3-trifluoromethylphenoxy)phenylacetic acid]	about twenty-fold less active	
O=C(O)C(Oc1cccc(C(F)(F)F)c1)c1ccc(Cl)cc1 (racemic) [halofenic acid, (4-chlorophenyl)(3-trifluoromethylphenoxy)acetic acid]		inhibits cytochrome P450 2C9
